# In patent US8557516B2, “AKT tyrosine 176 phosphorylation cancer biomarker” (H. Lee Moffitt Cancer Center and Research Institute, Inc., priority 2009, dated 2013):
# Test system: AKT Tyr176-phosphorylation
# Assay: Cell fractionation and immunoblotting of pTyr176-AKT in MCF-7 cells
# Assay type: cell-based, human
# Details: MCF-7 cells serum starved 24 h; insulin 50 ng/ml or heregulin 30 ng/ml
# Experimental: FIG. 27 is a blot showing Tyr176-phosphorylation regulates AKT plasma membrane localization. MCF-7 cells were serum starved (24 h) and treated with insulin (50 ng/ml) or for indicated times. Cell lysates were fractionated and IB with the indicated antibodies. Input panels pAck1 (Tyr), pIR(Tyr) and pHER-2(Tyr) represents IP with respective antibodies followed by IB with pTyr antibodies.
# FIG. 28 is a blot showing Tyr176-phosphorylation regulates AKT plasma membrane localization. MCF-7 cells were serum starved (24 h) and treated (C) heregulin (30 ng/ml) for indicated times. Cell lysates were fractionated and IB with the indicated antibodies. Input panels pAck1 (Tyr), pIR(Tyr) and pHER-2(Tyr) represents IP with respective antibodies followed by IB with pTyr antibodies.
# FIG. 29 is a blot showing Tyr176-phosphorylation regulates AKT plasma membrane localization. MCF7 cells were transfected with control or Ack1-specific siRNAs (40 nM) for 48 h and treated with heregulin for 40 mins. Cell lysates were fractionated and IB with indicated antibodies.
# FIG. 34 is a blot showing Tyr176-phosphorylation of AKT is PI3K-independent. MCF-7 cells were pretreated with LY294002 (10 μM, 1 h) followed by heregulin for 40 mins. Cell lysates were fractionated and membrane fraction was subjected to IB with indicated antibodies.
# Cell fractionation, immunoprecipitations and kinase assay. […]
substance,measurement,value
heregulin,time of optimal AKT Tyr-176 phosphorylation and plasma membrane accumulation,40 min
insulin: growth factor ligand used to stimulate cells,time of optimal AKT Tyr-176 phosphorylation and plasma membrane accumulation,30 min
